The subject of series [1] is AD mice. The series is described as follows: Morris water maze test, comparison with anti-AD drugs. Type of series: in vivo. The settings on record: AD mice aged 13 months. Here is the method: Two known anti-AD drugs named […] memantine were administered separately to the mice. For these experiments, mice were tested for effects on memory and learning using the Morris water maze test, essentially as described in the previous example.

The nature of series [2]: Magnesium absorption rate in rats (metabolic cages, urine and feces magnesium by ICP-AES). The settings on record: Example 5, gluconate in skim milk or 5 weight percent lactose water, chloride in water. Here is the method: Fifty 3-month old, male Sprague Dawley (SD) rats were divided into five groups of ten rats. Rats of this age and older are considered adult. Each of the rats was placed in a separate metabolic cage equipped with urine- and feces-collecting wells. All of the rats were maintained in a temperature-controlled room (22° C. to 25° C.) with a dark period from 08:00 pm to 08:00 am daily. From day 1 through day 3, each rat was fed daily 15 g of magnesium-free food and de-ionized water. […] The medium was skim milk for Composition 1 and Group 1, milk prepared from powdered milk, by diluting the powdered milk with water to obtain a composition like that of skim milk, for Composition 2 and Group 2, 1% milk cream in water for Composition 3 and Group 3, water comprising 5 weight percent lactose for Composition 4 and Group 4, and water for the Control Composition and Control Group. […] From day 11 through day 12, each rat was fed daily 15 g of magnesium-free food and de-ionized water.
From day 4 through day 10, urine from each rat was collected daily. The collected urine from each rat was then pooled together and the total volume of the pooled urine from each rat was recorded. The pooled urine from each rat, in an amount of […], was analyzed for magnesium content using an inductively coupled plasma-atomic emission spectrometer (ICP-AES). From day 5 to day 11, feces from each rat were collected daily. The collected feces from each rat were pooled together and the pooled feces were weighed and homogenized. The pooled feces from each rat, in an amount of 0.5 g, were analyzed for magnesium content using an ICP-AES.
A formula was used to calculate a magnesium absorption rate for each rat. The formula used was Y=AX−B, wherein X was the average total daily magnesium intake, Y was the average net daily amount of magnesium absorbed, as calculated by X minus the average daily amount of magnesium excreted from feces, B was the average daily amount of magnesium excreted from feces when the magnesium intake was zero, and the slope A represented the magnesium absorption rate. Data points (X, Y) associated with each rat in each group often rats, with the exception of the best points and the worst points, were plotted. The value of A, the magnesium absorption rate, associated with each of Groups 1-4, and thus with each of the Compositions 1-4, was then obtained using linear regression. The value of A, the magnesium absorption rate, associated with the Control Group, and thus with the Control Composition, was also obtained using linear regression, and relabeled as A0. […]

Series [3] deals with aging rats. The protocol:
Three groups of animals (young, aging, and magnesium-treated aging rats) were used. […] Spatial working memory was assessed using a T-maze non-matching-to-place task. […] Spatial working memory was first assessed on an elevated T-maze. The maze was located 1 m above the floor in a well lit laboratory that contained various prominent distal extra-maze cues. The rats were handled and habituated to the maze for 10 days, and to Froot Loop® cereal over several days before the test. Each trial consisted of a sample run and a choice run, with delay intervals of 15 s during the training and the pattern completion tasks. On the sample run, the rats were forced either left or right by the presence of the block, according to a pseudorandom sequence (with equal numbers of left and right turns per session, and with no more than two consecutive turns in the same direction). A cereal reward was available in the food well at the end of the arm. The block was then removed, and the rat was allowed a free choice of either arm. The animal was rewarded for choosing the previously unvisited arm. Rats were run one trial at a time with an inter-trial interval of 10 min. Each daily session consisted of 6 trials.
The rats were tested for 10 consecutive days on a rewarded forced-choice alternation task. The percentage of correct choices (alternations) was recorded for each daily session. […] Then, spatial working memory was tested by a gradual increase of the delay between the sample and the choice trials (FIG. 10, right panel).

The subject of series [4] is aging rats (12-14 months old). To be noted: for novel object exploration preference: single training. The protocol:
In this example, the effect of magnesium supplementation on recognition memory was tested. Three groups of rats were used in these experiments: 1) young rats (three months old); aging rats (12-14 months old), and; 3) magnesium-treated aging rats (12-14 months old, diet supplemented with 6 mg/kg MgCl2 from 8 months of age). We used experimentally naive, female, Sprague-Dawley young […], aging (12-14 month old) and […] rats (Charles River) at the beginning of the behavior experiments. They were housed two per cage with continuous access to food and water under a 12:12 light-dark cycle, with light onset at 8:00 a.m. […] All experiments involving animals were approved by the Massachusetts Institute of Technology's and Tsinghua University Committees on Animal Care.
The three groups of rats were tested for recognition memory using an object recognition test with a single exposure to the object during training. The task is based on the natural tendency of rodents to explore new objects and tests the animals' memory capacity for distinguishing novel versus familiar objects.
Briefly, the rats were first individually habituated to the personnel and then to open-field arena during 2 weeks. The rats were then allowed to explore two identical objects placed into the arena at fixed locations until they had accumulated 30 s of total inspection time (where this is defined as active exploration, sniffing or touching the object with the nose and/or forepaws) or for a maximum of 20 min. The rat was returned to the arena for the retention test and allowed to explore for another 30 sec. The retention intervals were 10 min and 24 hours. Objects were cleaned thoroughly between trials with 20% ethanol solution to ensure the absence of olfactory cues. The particular objects for a given trial were randomly determined, but each object was used for only one trial per rat. Memory of the familiar object is associated with increased exploration of the new object and an exploration index (% correct) is calculated as new object inspection time/30. […]

Series [5] relates to young (9-month old) and aged (25-month old) rats. To be noted: food containing 2% for 8 days, cited from earlier work.
In series [6] the test system is diabetic patients. The settings on record: nearly 1 g of magnesium daily for 1 month; cited from earlier work.
Setting [7] is: relatively high magnesium dosage.
[8] abbreviates: relatively low magnesium dosage.

Like-named read-outs stand apart in the source and are kept apart here.

As to `COc1cc2c(cc1OC)C(=O)C(CC1CCN(Cc3ccccc3)CC1)C2` (stereo not drawn) [aricept], the “reducing the effects of AD on learning capacity” value in series [1] is reported as “both being better at reducing the effects of AD on learning capacity than aricept”.

With `[Cl-].[Cl-].[Mg+2]` [magnesium chloride], the magnesium absorption rate entry is “less desirable” in series [2] (setting [7]) and “suitable, but lower” in series [2] (setting [8]). Also, the “spatial working memory with increased delay” value in series [3] (2 and 5 min delays, p<0.05) was “significantly enhanced the performance of the aging rats at 2 and 5 min delays”. For the same compound, the “percentage of correct choices during training” value in series [3] (15 sec delay, versus untreated aging rats, p<0.05) is listed as “performed significantly better from their first trials”. The “asymptotic choice accuracy level” value in series [3] (after 8 days of training, all three groups) was approximately 94%. Besides, the “novel object exploration preference” value is recorded as “preferentially explored the novel object to the same extent as young rats” in series [4] (10 minute retention interval, aging rats, 6 mg/kg from 8 months of age) and “lose there ability to distinguish novel versus familiar objects” in series [4] (24 hours retention interval). Besides, in series [4] (two training sessions separated by 10 minutes, 24-hour retention interval), the novel object preference entry is given as “retained a high level of preference”.

As for `[O]=[Mg]` [magnesium oxide], the side-effect result in series [5] was “diarrhea and weight loss”. In addition, in series [5] (gain transient), the cognitive function entry was “some sign of improvement of cognitive function”. In addition, in series [6], the metabolic control result is on record as “only minor improvement in metabolic control”.

Turning to `CC12CC3CC(C)(C1)CC(N)(C3)C2` [memantine], the “reducing the effects of AD on learning capacity” value in series [1] is “better at reducing the effects of AD on learning capacity than aricept”.

Regarding magnesium gluconate, the magnesium absorption rate result in series [2] (setting [7]) was “suitably close to those associated with the lower dosage compositions”; in series [2] (setting [8]), “suitable magnesium absorption rates”.

The values above are taken from US9737563B2, “Magnesium compositions and uses thereof for neurological disorders” (Neurocentria, Inc., priority 2007, dated 2017).
